In PMC6222789, “CF3-Substituted Mollugin 2-(4-Morpholinyl)-ethyl ester as a Potential Anti-inflammatory Agent with Improved Aqueous Solubility and Metabolic Stability” (Molecules : A Journal of Synthetic Chemistry and Natural …, 2018):

Experiments:
[1] = tested on: TNF-α-induced adhesion of U937 monocytic cells to HT-29 cells; test: TNF-α-induced colonic epithelial cell adhesion assay; type: cell-based, human; details: Homo sapiens, Epithelial cell, 10 uM; U937 adhesion to HT-29 cells, TNF-α-induced
Method: (§1) Synthesized mollugin derivatives were subjected to the colonic epithelial cell adhesion assay, which mimics the initial stage of colon inflammation. The inhibition of TNF-α-induced or IL-6-induced adhesion of U937 monocytic cells to HT-29 cells in 10 μM solution of synthesized molecules was measured, and the results are summarized in Table 1 and Table 2. Mesalazine (2), a commercially available medication for the treatment of IBD, and mollugin were chosen as assay positive controls.
(§2) HT-29 human colonic epithelial cells and U937 human pre-monocytic cells were grown in RPMI 1640 medium supplemented with 10% FBS, 100 IU/mL penicillin, and 100 µg/mL streptomycin in a humidified incubator under 5% CO2/95% air.
(§3) U937 monocytic cell adhesion to colonic epithelial cells was evaluated using human U937 pre-monocytic cells, which were prelabeled with 2′,7′-bis(2-carboxyethyl)-5(6)-carboxyfluorescein acetoxymethyl ester (BCECF/AM, 10 μg/mL) for 1 h at 37 °C. HT-29 cells cultured in 24-well plates were pretreated with test compound, 5-ASA, or tofacitinib for 1 h prior to incubation with TNF-α (10 ng/mL) and IL-6 (5 ng/mL) for an additional 3 h. Cells were then co-incubated with BCECF/AM-prelabeled U937 cells (1 × 10^6 cells/well) for 30 min at 37 °C. Non-adhering U937 cells were removed, and the HT-29 cells and adherent U937 cells were washed twice with PBS. Images were captured and processed with a Nikon ECLIPSE TE2000-U microscope and NIS-Elements F software (Nikon, Tokyo, Japan). For quantitative analysis, other sets of cells were lysed in 0.1% Triton X-100 in Tris (0.1 M), and the fluorescence was measured using a fluorescence-detecting microplate reader (Promega , Madison, WI, USA) at […]. Experiments were performed in triplicate and repeated at least three times independently.

[2] = tested on: IL-6-induced adhesion of U937 monocytic cells to HT-29 cells; test: IL-6-induced colonic epithelial cell adhesion assay; type: cell-based, human; details: Homo sapiens, Epithelial cell, 10 uM; U937 adhesion to HT-29 cells, IL-6-induced
Method: as §1, §2, §3

[3] = Metabolic stability, dog liver microsomes; type: in vitro ADME; details: 30 min, 1 μM
Method: (§4) Pooled human liver microsomes (150 donor) and dog, rat, mouse liver microsomes were obtained from BD Gentest Co. (Woburn, MA, USA). NADPH regeneration system was obtained from Promega. S-Mephenytoin, 4-hydroxymephenytoin, and 1’-hydroxymidazolam were purchased from Ultrafine Chemical Co. (Manchester, UK). All other chemicals and solvents were of the highest grade available. The metabolic stability assay was performed by incubation of human or selected animal liver microsomes (most often dog, rat and mouse), at 37 °C with a test compound at a final concentration of 1 μM, in the presence of 0.5 mg/mL microsomal protein and NADPH regeneration system, in a total volume of 100 μL of 100 mM phosphate buffer, pH 7.4. The incubation was started by the addition of NADPH regeneration system and terminated with 40 μL of ice-cold acetonitrile at 0 and 30 min. Precipitated proteins were removed by centrifugation at 10,000× g for 5 min at 4 °C. Aliquots of the supernatant were injected onto an LC-MS/MS system. Incubations terminated prior to the addition of NADPH regeneration system (time point 0 min) were used as standards, defined as 100%. Percent of the parent compound remaining was calculated by comparing peak area.

[4] = Metabolic stability, rat liver microsomes; type: in vitro ADME; details: 30 min, 1 μM
Method: as §4

[5] = Metabolic stability, mouse liver microsomes; type: in vitro ADME; details: 30 min, 1 μM
Method: as §4

[6] = Plasma stability, human plasma; type: in vitro ADME; details: 37 °C, 1 μM
Method: The plasma stability assay was performed by incubation of human or rat plasma with a test compound in a final concentration of 1 μM for 120 min at 37 °C. The incubation was terminated by addition of 40 μL of ice-cold acetonitrile and vortexing for 5 min. The precipitated proteins were removed by centrifugation at 14,000× g for 5 min at 4 °C. Aliquots of the supernatant were injected onto a Shimadzu Nexera XR LC system. Percentages of the parent compound remaining were calculated by comparing peak areas using the Xcalibur software (version 1.6.1, Waltham, MA, USA).

CYP2C9 = biological target: T1, CYP2C9 (Homo sapiens, UniProt P11712); test: CYP inhibition assay, CYP2C9; type: in vitro ADME; details: for CYP Inhibition (% of Control) 2C9: 10 μM, CYP activity in presence of inhibitor as % of control, human liver microsomes
T1 construct: from tissue; host or cells: human liver microsomes
Method: (§5) All incubations were performed in duplicate, and the mean values were used for analysis. The assays of phenacetin O-deethylase, tolbutamide 4-hydroxylase, S-mephenytoin 4-hydroxylase, dextromethorphan O-demethylase and midazolam 1′-hydroxylase activities were determined as probe activities for CYP1A2, CYP2C9, CYP2C19, CYP2D6 and CYP3A, respectively, using cocktail incubation and tandem mass spectrometry. Briefly, incubation reaction was performed with 0.25 mg/mL human liver microsomes in a final incubation volume of 100 μL. The incubation medium contained 100 mM phosphate buffer (pH 7.4) with probe substrates. The incubation mixture containing various inhibitors (10 μM) was pre-incubated for 5 min. After pre-incubation, an NADPH regenerating system was added. After incubation at 37 °C for 15 min, the reaction was stopped by placing the incubation tubes on ice and adding 40 μL of ice-cold acetonitrile. The incubation mixtures were then centrifuged at 10,000× g for 5 min at 4 °C. Aliquots of the supernatant were injected onto an LC-MS/MS system. The CYP-mediated activities in the presence of inhibitors were expressed as percentages of the corresponding control values.

CYP2C19 = biological target: T2, CYP2C19 (Homo sapiens, UniProt P33261); test: CYP inhibition assay, CYP2C19; type: in vitro ADME; details: for CYP Inhibition (% of Control) 2C19: 10 μM, CYP activity in presence of inhibitor as % of control, human liver microsomes
T2 construct: from tissue; host or cells: human liver microsomes
Method: as §5

CYP2D6 = biological target: T3, CYP2D6 (Homo sapiens, UniProt P10635); test: CYP inhibition assay, CYP2D6; type: in vitro ADME; details: for CYP Inhibition (% of Control) 2D6: 10 μM, CYP activity in presence of inhibitor as % of control, human liver microsomes
T3 construct: from tissue; host or cells: human liver microsomes
Method: as §5

CYP3A4 = test: CYP inhibition assay, CYP3A4; type: in vitro ADME, human; details: for CYP Inhibition (% of Control) 3A4: 10 μM, CYP activity in presence of inhibitor as % of control, human liver microsomes
Method: as §5

cell viability = test: MTT cell viability assay; type: cell-based; details: 10 μM concentration
[7] = Determination of water solubility at 10 mM; type: physicochemical; details: aqueous buffer, thermodynamic from solid, sodium phosphate buffer 0.1 M, pH 7.4, room temperature
Method: Water solubility (>10 mM) was determined using the following procedure at room temperature. The test compound was added to a vial containing sodium phosphate buffer, 0.1 M, pH 7.4 (1 mL) to make a 10 mM mixture, and the mixture was equilibrated during 10 min of sonication and then visually checked immediately and after 24 h for any undissolved parts or precipitation of the sample. If no precipitation was shown after 24 h, the aqueous solution was filtered (Syringe filter; PTFE; pore size: 0.45 μm; 25 mm DI) and subjected to LC-MS to confirm the reagent.

T3 sequence (P10635 whole entry): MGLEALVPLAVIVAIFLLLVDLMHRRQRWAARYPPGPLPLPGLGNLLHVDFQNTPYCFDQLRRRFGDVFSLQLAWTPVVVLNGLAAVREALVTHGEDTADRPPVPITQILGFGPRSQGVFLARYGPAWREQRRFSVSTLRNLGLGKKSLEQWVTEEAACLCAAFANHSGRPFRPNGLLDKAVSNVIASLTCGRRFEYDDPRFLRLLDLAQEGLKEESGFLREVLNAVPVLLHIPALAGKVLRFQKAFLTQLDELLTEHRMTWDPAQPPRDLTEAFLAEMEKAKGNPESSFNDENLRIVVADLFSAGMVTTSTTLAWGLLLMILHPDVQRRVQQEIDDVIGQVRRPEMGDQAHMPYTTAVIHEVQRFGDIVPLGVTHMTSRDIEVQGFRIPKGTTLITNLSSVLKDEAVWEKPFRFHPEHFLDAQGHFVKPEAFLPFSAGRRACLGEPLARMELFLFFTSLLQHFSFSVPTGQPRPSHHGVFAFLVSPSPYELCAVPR
T2 sequence (P33261 whole entry): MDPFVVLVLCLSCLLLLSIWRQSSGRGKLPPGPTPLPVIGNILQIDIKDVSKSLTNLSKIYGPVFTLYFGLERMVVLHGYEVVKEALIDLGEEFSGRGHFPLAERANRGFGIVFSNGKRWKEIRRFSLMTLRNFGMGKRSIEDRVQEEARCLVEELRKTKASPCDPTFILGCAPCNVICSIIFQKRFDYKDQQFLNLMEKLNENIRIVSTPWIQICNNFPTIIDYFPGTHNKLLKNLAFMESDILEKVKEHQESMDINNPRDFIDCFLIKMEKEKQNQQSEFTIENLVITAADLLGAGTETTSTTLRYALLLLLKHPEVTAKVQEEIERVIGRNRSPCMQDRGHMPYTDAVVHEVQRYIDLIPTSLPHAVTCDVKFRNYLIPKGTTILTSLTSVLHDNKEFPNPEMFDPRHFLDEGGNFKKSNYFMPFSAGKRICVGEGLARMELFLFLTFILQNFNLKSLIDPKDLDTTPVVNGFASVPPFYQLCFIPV
T1 sequence (P11712 whole entry): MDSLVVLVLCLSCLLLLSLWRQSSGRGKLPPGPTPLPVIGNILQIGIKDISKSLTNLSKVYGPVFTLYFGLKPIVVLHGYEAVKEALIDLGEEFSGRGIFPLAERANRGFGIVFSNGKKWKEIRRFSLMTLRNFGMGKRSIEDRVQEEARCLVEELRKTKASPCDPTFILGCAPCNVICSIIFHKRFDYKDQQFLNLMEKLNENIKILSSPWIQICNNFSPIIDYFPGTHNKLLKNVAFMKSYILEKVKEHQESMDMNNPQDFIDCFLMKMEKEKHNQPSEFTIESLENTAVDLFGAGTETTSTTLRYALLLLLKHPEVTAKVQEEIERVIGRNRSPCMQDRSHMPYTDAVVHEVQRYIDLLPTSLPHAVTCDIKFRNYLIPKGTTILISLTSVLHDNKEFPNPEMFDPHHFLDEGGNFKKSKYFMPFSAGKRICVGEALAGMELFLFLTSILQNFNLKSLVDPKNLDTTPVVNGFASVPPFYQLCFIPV

SMILES	inhibition at 10 µM [1]	inhibition at 10 µM [2]	Metabolic Stability (% Remain, 30 min) Dog [3]	Metabolic Stability (% Remain, 30 min) Rat [4]	Metabolic Stability (% Remain, 30 min) Mouse [5]	Plasma Stability (% Remain, 2 h) Human [6]	CYP Inhibition (% of Control) 2C9 (CYP2C9)	CYP Inhibition (% of Control) 2C19 (CYP2C19)	CYP Inhibition (% of Control) 2D6 (CYP2D6)	CYP Inhibition (% of Control) 3A4 (CYP3A4)	effect on cell viability (MTT) (cell viability)	inhibition at 15 min, 10 μM (CYP2C9; human, liver microsomes, pH 7.4, probe tolbutamide (4-hydroxylation), at 10 μM drug concentration, read-out: % inhibition of CYP 2C9)	inhibition at 15 min, 10 μM (CYP2C19; human, liver microsomes, pH 7.4, probe S-mephenytoin (4-hydroxylation), at 10 μM drug concentration, read-out: % inhibition of CYP 2C19)	inhibition at 15 min, 10 μM (CYP2D6; human, liver microsomes, pH 7.4, probe dextromethorphan (O-demethylation), at 10 μM drug concentration, read-out: % inhibition of CYP 2D6)	inhibition at 15 min, 10 μM (CYP3A4; human, liver microsomes, pH 7.4, probe midazolam (1′-hydroxylation), at 10 μM drug concentration, read-out: % inhibition of CYP 3A4)	solubility at 24 h [7]
CC1(C)C=Cc2c(C(=O)OCCN3CCOCC3)c(O)c3ccccc3c2O1 [6d, 2-Morpholinoethyl 6-hydroxy-2,2-dimethyl-2H-benzo[h]chromene-5-carboxylate]	46.3 ± 6.2%	26.5 ± 5%	45 % Remain	20 % Remain	10 % Remain	97 % Remain	99 % of Control	68 % of Control	75 % of Control	91 % of Control	neither 6d nor 15c affects the cell viability					
CC1(C)C=Cc2c(C(=O)OCCN3CCOCC3)c(O)c3cc(C(F)(F)F)ccc3c2O1 [15c, 2-Morpholinoethyl 6-hydroxy-2,2-dimethyl-8-(trifluoromethyl)-2H-benzo[h]chromene-5-carboxylate]	46 ± 7.6%	50.3 ± 5.7%	86 % Remain	52 % Remain	45 % Remain	100 % Remain	97 % of Control	93 % of Control	92 % of Control	90 % of Control	neither 6d nor 15c affects the cell viability	< 50%	< 50%	< 50%	< 50%	> 10 mM
